Experimental data published in publication PMC12040169 (PLOS Biology, 2025).

test: in vitro; conditions: human, hela cells, % viability

| SMILES | viability at 28.5 h, 10 µM [%] |
| --- | --- |
| COc1ccc(-c2cnc(NCC3CC3)c(C(=O)N3CCN(C)CC3)c2)cc1 [CBK076327] | 96.6 |
| COc1ccc(-c2cnc(NCCOc3ccccc3)c(C(=O)NCC3COc4ccccc4O3)c2)cc1 (centres unmarked) [CBK076332] | 97.2 |
| CN(C)C(=O)c1cc(-c2cccc(N(C)C)c2)cnc1NCC1CC1 [CBK076333] | 85.1 |
| Cc1ccc(C(=O)NCCc2ccc(S(N)(=O)=O)cc2)c(N2CCN(C(=O)c3ccco3)CC2)n1 [CBK076345] | 89 |
| COc1ccc(-c2cnc(NCC3CC3)c(C(=O)NCCc3c[nH]c4ccccc34)c2)cc1 [CBK076349] | 96.4 |
| CC(=O)NCCNC(=O)c1cc(-c2cccc(S(C)(=O)=O)c2)cnc1NCC1CC1 [CBK076351] | 93.9 |
| Cc1ccc(C(=O)NCC2COc3ccccc3O2)c(N2CCN(C(=O)c3ccco3)CC2)n1 (centres unmarked) [CBK076356] | 93.9 |
| CS(=O)(=O)c1cccc(-c2cnc(NCC3CC3)c(C(=O)Nc3ccc4c(c3)OCO4)c2)c1 [CBK076362] | 95.2 |
| Cc1ccc(C(=O)NNCc2ccccc2)c(NCc2cccnc2)n1 [CBK076369] | 88.6 |
| Cc1ccc(C(=O)NCCN2CCOCC2)c(NCCCn2ccnc2)n1 [CBK076371] | 115 |
| Cc1ccc(C(=O)Nc2ccc3c(c2)OCO3)c(N2CCOCC2)n1 [CBK076377] | 92.9 |
| CN(C)C(=O)c1cc(Br)cnc1NCCCn1ccnc1 [CBK076378] | 98 |
| COc1ccc(S(=O)(=O)NCCNC(=O)c2cc(-c3cccnc3)cnc2NCc2ccc3c(c2)OCO3)cc1 [CBK076379] | 101 |
| CCN1CCCC1CNC(=O)c1ccc(C)nc1NCCCn1ccnc1 (centres unmarked) [CBK076382] | 90.7 |
| Cc1ccc(C(=O)NCc2ccco2)c(NCc2cccnc2)n1 [CBK076383] | 102 |
| Cc1ccc(C(=O)NC2CCCCC2)c(N2CCOCC2)n1 [CBK076388] | 96.5 |
| C=C(C)CNC(=O)c1ccc(C)nc1N1CCN(C(=O)c2ccco2)CC1 [CBK076401] | 94.8 |
| O=C(NCc1ccc(F)cc1)c1cc(Br)cnc1NCc1cccnc1 [CBK076405] | 104 |
| Cc1ccc(C(=O)NCc2ccco2)c(N2CCOCC2)n1 [CBK076410] | 89.9 |
| COc1ccc(S(=O)(=O)NCCNC(=O)c2ccc(-c3cccc(Cl)c3Cl)nc2NCc2cccnc2)cc1 [CBK076436] | 116 |
| COc1ccc(-c2cnc(NCC3CC3)c(C(=O)NCc3ccccc3SC)c2)cc1 [CBK076437] | 110 |
| O=C(NC1CCCCC1)c1cc(Br)cnc1NCc1cccnc1 [CBK076439] | 91 |

| SMILES | viability at 28.5 h, 10 µM [%] |
| --- | --- |
| Cc1ccc(C(=O)NCc2cccnc2)c(N2CCN(C(=O)c3ccco3)CC2)n1 [CBK076444] | 83.9 |
| COc1ccc(OCCNC(=O)c2cc(Br)cnc2N(C)C(C)=O)cc1 [CBK076467] | 104 |
| CS(=O)(=O)Nc1ncc(-c2ccco2)cc1C(=O)NCc1nc2ccccc2[nH]1 [CBK076468] | 103 |
| CN(C)C(=O)c1cc(-c2ccccc2)cnc1N(C)S(C)(=O)=O [CBK076473] | 105 |
| COc1ccc(S(=O)(=O)NCCNC(=O)c2cc(Br)cnc2N(C)S(C)(=O)=O)cc1 [CBK076477] | 110 |
| CS(=O)(=O)Nc1ncc(-c2ccco2)cc1C(=O)NCc1ccc(F)cc1 [CBK076479] | 112 |
| CS(=O)(=O)Nc1ncc(-c2ccco2)cc1C(=O)Nc1ccon1 [CBK076512] | 89.6 |
| CCN1CCCC1CNC(=O)c1cc(Br)cnc1N(C)C(C)=O (centres unmarked) [CBK076524] | 85.2 |
| CC(=O)N(C)c1ncc(Br)cc1C(=O)N(C)C [CBK076533] | 97.1 |
| CS(=O)(=O)Nc1ncc(Br)cc1C(=O)NCc1ccc(F)cc1 [CBK076538] | 89.6 |
| COc1ccc(-c2cnc(NS(C)(=O)=O)c(C(=O)NCc3ccco3)c2)cc1 [CBK076539] | 94.9 |
| CC(=O)N(C)c1ncc(Br)cc1C(=O)NCCc1ccccc1 [CBK076543] | 93.8 |
| COCCNc1nc(-c2ccccc2CO)ccc1C(=O)NCCNC(C)=O [CBK076548] | 101 |
| O=C(NCC(F)(F)F)c1ccc(-c2ccccc2)nc1NCc1cccnc1 [CBK076551] | 95 |
| CC(=O)N(C)c1ncc(Br)cc1C(=O)NCC1COc2ccccc2O1 (centres unmarked) [CBK076558] | 91.7 |
| COCCNC(=O)c1ccc(-c2ccccc2CO)nc1N1CCOCC1 [CBK076559] | 97.6 |
| C=CCNC(=O)c1ccc(-c2cccc(N(C)C)c2)nc1NCc1cccnc1 [CBK076566] | 91.3 |
| CS(=O)(=O)Nc1ncc(-c2ccco2)cc1C(=O)NCCc1c[nH]c2ccccc12 [CBK076569] | 90.5 |
| CC(=O)N(C)c1nc(-c2cccc(N(C)C)c2)ccc1C(=O)NCCc1ccc(S(N)(=O)=O)cc1 [CBK076578] | 88.8 |
| CC(=O)N(C)c1nc(-c2cccc(N(C)C)c2)ccc1C(=O)NC1CCS(=O)(=O)C1 (centres unmarked) [CBK076590] | 103 |
| CN(C)CCN(C)C(=O)c1ccc(-c2ccccc2CO)nc1N(C)C [CBK076591] | 95 |
| CC(=O)Nc1cccc(-c2cnc(N(C)S(C)(=O)=O)c(C(=O)NCc3ccc4c(c3)CCO4)c2)c1 [CBK076609] | 99.7 |

| SMILES | viability at 28.5 h, 10 µM [%] |
| --- | --- |
| CC(=O)c1ccccc1-c1ccc(C(=O)N2CCN(C)CC2)c(NCC2CC2)n1 [CBK076613] | 92.8 |
| CC(=O)c1ccc(-c2ccc(C(=O)NCCc3ccc(S(N)(=O)=O)cc3)c(N(C)C(C)=O)n2)s1 [CBK076621] | 91.9 |
| CC(=O)c1ccc(-c2ccc(C(=O)NCC3COc4ccccc4O3)c(N(C)C(C)=O)n2)s1 (centres unmarked) [CBK076637] | 114 |
| CCC1CCCCN1C(=O)c1ccc(C(C)(C)C)cc1 (centres unmarked) [CBK076644] | 103 |
| CCC1CCCCN1C(=O)c1nc2ccccc2s1 (centres unmarked) [CBK076645] | 101 |
| COc1ccc([C@@]23CC[C@@H](NC(=O)c4ccc5c(c4)OC(F)(F)O5)C[C@@H]2N(C)CC3)cc1OC [CBK076658T] | 108 |
| CCSc1nnc(-c2cccnc2)n1Cc1ccccc1 [CBK076664] | 84.4 |
| CSc1nnc(-c2ccccc2O)n1CCc1ccccc1 [CBK076668] | 96.8 |
| COc1ccc(C(NC(=O)[C@H]2CCCN2C(=O)COc2ccccc2)c2ccccc2C)cn1 (some centres unmarked) [CBK076682] | 96.1 |
| CCC1CCCCN1C(=O)c1cncc(Br)c1 (centres unmarked) [CBK076699] | 107 |
| CCSc1nnc(-c2ccc([N+](=O)[O-])cc2)n1CC(C)C [CBK076724T] | 108 |
| COc1ccc2[nH]c3c(c2c1)CCN(C(=O)CNCc1ccc(OC)c(OC)c1)C31CCN(CCOc2ccccc2)C1 (centres unmarked) [CBK076736T] | 75 |
| CCC1CCCCN1C(=O)c1cccc(C)n1 (centres unmarked) [CBK076750] | 92.4 |
| CCC1(CC)C(=O)N=C(C(C)(C)C)NC1=O [CBK076759] | 88.8 |
| CSc1nnc(-c2cccc(C)c2)n1CC(C)C [CBK076764T] | 89.1 |
| COc1ncccc1C(NC(=O)C1CCN(C(=O)OCc2ccccc2)CC1)c1ccccc1C (centres unmarked) [CBK076802] | 90.8 |
| O=C(Nc1ccsc1C(=O)O)c1ccc(Cl)cc1 [CBK076902] | 96.8 |
| CC(C)(C)OC(=O)N1CCC(CNS(=O)(=O)c2ccc3c(c2)OCCO3)CC1 [CBK076971] | 90.6 |
| O=S(=O)(Nc1ccccc1N1CCCCC1)c1ccc(Cl)cc1 [CBK077063] | 100 |
| CCOC(=O)c1sc(NS(=O)(=O)c2ccc(Cl)c(Cl)c2)nc1C [CBK077228] | 92.5 |
| O=C(O)CCSC(CC(=O)c1ccccc1)c1ccc(Cl)cc1 (centres unmarked) [CBK077251] | 97.3 |
| COc1ccc(S(=O)(=O)N2CCCCC2C(=O)O)cc1 (centres unmarked) [CBK077424] | 99.5 |

| SMILES | viability at 28.5 h, 10 µM [%] |
| --- | --- |
| CCOc1cc(/C=c2/sc3nc(=O)c(Cc4ccccc4)nn3c2=O)ccc1OC(C)=O [CBK077455] | 89.2 |
| Cc1ccc(Cn2ncc3c(NCCCN4CCOCC4)ncnc32)cc1 [CBK077470] | 94.4 |
| O=C(O)C1CSC(c2cccc(Cl)c2Cl)N1 (centres unmarked) [CBK077526] | 106 |
| CC1CCN(c2nc3nonc3nc2Nc2ccc3c(c2)OCO3)CC1 [CBK077551] | 98.8 |
| OCCNc1ncnc2c1cnn2-c1ccccc1 [CBK077741C] | 81.3 |
| CCOC(=O)c1ccc(NS(=O)(=O)c2cc(Cl)ccc2Cl)cc1 [CBK077746] | 88.4 |
| COC(=O)C1=C(C)N=c2s/c(=C/c3ccc(OC)c(OC(C)=O)c3)c(=O)n2C1c1cccs1 (centres unmarked) [CBK077753] | 88.3 |
| O=C(O)C1Nc2c(Cl)cc(Cl)cc2C2C=CCC12 (centres unmarked) [CBK077855] | 78.5 |
| O=C(NCc1ccco1)c1ccccc1NS(=O)(=O)c1ccc(Br)s1 [CBK077969] | 79.9 |
| O=C(O)c1ccc(-c2ccc(/C=C3/NC(=O)N(c4ccc(Cl)cc4)C3=O)o2)cc1 [CBK077970] | 103 |
| Cc1ccc(C(C)C)c(OCc2ccc(C(=O)O)o2)c1 [CBK078089] | 108 |
| CC(=O)Nc1ccc(NCc2cc(Cl)ccc2OCc2ccc(Cl)cc2Cl)cc1 [CBK078179] | 90.8 |
| Cc1ccc(NC(=O)CN2C(=O)S/C(=C/c3ccc(-c4ccc(Cl)c(C(=O)O)c4)o3)C2=O)cc1 [CBK078256] | 86.3 |
| O=C(O)c1ccc(Cl)c(-c2ccc(/C=N/Nc3ccc([N+](=O)[O-])cc3)o2)c1 [CBK078331] | 97.8 |
| CC(C)(C)c1csc(NCc2c(O)ccc3ccccc23)n1 [CBK078381] | 92.9 |
| COc1ccc(C)cc1NS(=O)(=O)c1cc(I)c2occc2c1 [CBK078531] | 72.6 |
| CCC1CCCCN1C(=O)c1oc2ccccc2c1C (centres unmarked) [CBK078548] | 107 |
| CCC1CCCCN1C(=O)c1cc2ccccc2o1 (centres unmarked) [CBK078549] | 80.1 |
| COc1ccc(C(NC(=O)C2CCC(N)CC2)c2ccccc2C)cn1 (centres unmarked) [CBK078551] | 92 |
| COc1cc([C@@]23CC[C@@H](NC(=O)Nc4cccc(C(F)(F)F)c4F)C[C@@H]2N(C)CC3)ccc1C#N [CBK078562] | 106 |
